One series relates to CHL/IU cells. Kind of series: Cytotoxicity test. The format is cell-based, Chinese hamster. The conditions noted are these: 48 hours culture, Cell counting kit-8. On the procedure: Chinese hamster lung fibroblast-derived CHL/IU cells (DS Pharma Biomedical Co., Ltd., Japan) were seeded, and the medium was replaced on the following day by another medium (MEM+2 mM L-Glutamine+10% CS (all purchased from Invitrogen)) containing a test compound at various concentrations, followed by culture for an additional 48 hours. Using a Cell counting kit-8 (Dojindo Laboratories, Japan), the survival rate of the cells was determined to obtain a curve whose horizontal axis represents the test compound concentration and whose vertical axis represents the survival rate. The curve thus obtained was used to determine the concentration of the test compound at which the survival rate was 50%. As a result, this concentration was 275, 441 and >640 mmol/L for the compounds of Examples 56, 62 and 70, respectively.
A general note: Tetrazolium dyes change colour on reduction, which living cells bring about.

The target of series [1] is T1, human H3 receptor (Homo sapiens, UniProt Q9Y5N1). As to the kind of experiment: H3 receptor binding test (R(−)-α-methyl[3H]histamine). Further details: purchased Euroscreen ES-392-M; host or cells: CHO-K1. The conditions noted are these: inhibition of R(−)-α-methyl[3H]histamine (2 nM) binding, membrane of human H3 receptor-expressing CHO-K1 cells. On the procedure:
A membrane preparation of human H3 receptor-expressing CHO-K1 cells (Euroscreen, ES-392-M, 15 μg protein/200 μl), R(−)-α-methyl[^3H]histamine (Amersham, TRK-1017, specific activity: 1.74 TBq/mmol, 2 nM) and a test drug were reacted at room temperature for 1 hour. After completion of the reaction, the reaction mixture was subjected to suction filtration through a 0.3% polyethyleneimine-treated glass filter (GF/C). The glass filter was washed five times with 50 mM Tris-HCl washing solution (pH 7.4) containing 5 mM EDTA. After washing, the glass filter was dried and a scintillator was added thereto, followed by measurement of radioactivity on the filter using a liquid scintillation counter.
A fixed concentration (2 nM) of R(−)-α-methyl[^3H]histamine was reacted under the above conditions with each test drug at various concentrations to obtain an inhibition curve.

Series [2] in a line: Distribution test in rats. The format is in vivo, rat. The conditions noted are these: SD rats, single oral dose 3 mg/kg (2.75 mg/kg as a free form); plasma and organs at 1, 2, 4, 8 and 24 hours. The procedure:
SD rats were used and orally administered once with the compound of Example 70 at a dose of 3 mg/kg (2.75 mg/kg as a free form) to confirm the tissue distribution of the compound in plasma, brain, liver, kidney, spleen, lung, heart, muscle, fat, testis, bone marrow and adrenal gland at 1, 2, 4, 8 and 24 hours after administration. For quantification, high performance liquid chromatography/tandem mass spectrometry (LC-MS/MS) was used.

Series [3] addresses T2, rat recombinant κ receptor (Rattus norvegicus, UniProt P34975).
T2 construct: Cerep, Inc. (contract assay)
As to the kind of experiment: [3H]U69593 binding test. As to conditions: [3H]U69593 1 nM. On the procedure:
Affinity for κ receptor was evaluated in a [^3H]U69593 binding test by Cerep, Inc. The κ receptor preparation used was rat recombinant κ receptor. The rat recombinant κ receptor was incubated with [^3H]U69593 (1 nM) at 22° C. for 60 minutes.

For the next series, the system named is Sprague-Dawley rats. Kind of series: Social recognition test. The format is in vivo, rat. The procedure:
This experiment was performed with Sprague-Dawley rats (male) according to the reported method (Shimazaki et al., European Journal of Pharmacology, 575, 94-97, 2007). Adult rats (9 weeks of age) were placed in a test cage and acclimated for 30 minutes. After 30 minutes, juvenile rats (4 weeks of age) were placed in the same test cage containing the adult rats, and allowed to stand for 5 minutes. During this 5 minutes, the time taken for the adult rats to show social behavior (sniffing, grooming, following) to the juvenile rats was measured (first exploratory time). Then, the rats were removed from the test cage and returned to their respective home cages. After 85 minutes, the adult rats were placed again in the test cage and acclimated for 30 minutes. The same juvenile rats as used in the first exploratory were placed in the test cage, followed by measuring the time taken for the adult rats to show social behavior (sniffing, grooming, following) to the juvenile rats during 5 minutes (second exploratory time). The social recognition was expressed as the ratio of second exploratory time/first exploratory time. A test substance (the compound of Example 70) was orally administered to the adult rats immediately after their first social behavior.

The target in series [4] is human recombinant μ receptor (Homo sapiens, UniProt P35372). As to the kind of experiment: [3H]diprenorphine binding test. As to conditions: read-out: % Inhibition (10 μM), μ receptor.
Procedure: Affinity for μ receptor was evaluated in a [^3H]diprenorphine binding test by Cerep, Inc. The μ receptor preparation used was human recombinant μ receptor. […] Binding of [^3H]diprenorphine in the presence of 1 μM naltrexone was defined as non-specific binding, and the difference between total binding and non-specific binding of [^3H]diprenorphine was defined as specific binding of [^3H]diprenorphine.
The target of a further series is T3, σ1 receptor (Homo sapiens, UniProt Q99720).
T3 construct: host or cells: Jurkat cells (membrane)
Kind of series: [3H](+)pentazocine binding test. As to conditions: [3H](+)pentazocine 8 nM, Jurkat cell membrane. On the procedure: Affinity for σ1 receptor was evaluated in a [^3H](+)pentazocine binding test by Cerep, Inc. The σ1 receptor preparation used was the membrane of Jurkat cells. The Jurkat cell membrane was incubated with [^3H](+)pentazocine (8 nM) at 22° C. for 120 minutes.

The target in series [5] is T4, human recombinant δ receptor (Homo sapiens, UniProt P41143).
T4 construct: Cerep, Inc. (contract assay)
Kind of series: [3H]DADLE binding test. As to conditions: [3H]DADLE 0.5 nM. The procedure: Affinity for δ receptor was evaluated in a [^3H]DADLE binding test by Cerep, Inc. The δ receptor preparation used was human recombinant δ receptor. The human recombinant δ receptor was incubated with [^3H]DADLE (0.5 nM) at 22° C. for 120 minutes.

In series [6] the target is T1, human H3 receptor. As to the kind of experiment: [35S]GTP-γ-S binding test.
Procedure: After completion of the reaction, [^35S]GTP-γ-S (0.2 nM) was added and reacted for an additional 30 minutes. After completion of the reaction, the reaction mixture was subjected to suction filtration through a glass filter (GF/C). The glass filter was washed three times with 20 mM HEPES washing solution (pH 7.4) containing 100 mM sodium chloride and 1 mM magnesium chloride. After washing, the glass filter was dried and a scintillator was added thereto, followed by measurement of radioactivity on the filter using a liquid scintillation counter.
Binding of [^35S]GTP-γ-S in the absence of R(−)-α-methylhistamine was defined as non-specific binding, and the difference between total binding in the presence of R(−)-α-methylhistamine and non-specific binding was defined as specific binding of [^35S]GTP-γ-S. Fixed concentrations of [^35S]GTP-γ-S (0.2 nM) and R(−)-α-methylhistamine (100 μM) were reacted under the above conditions with each test drug at various concentrations to obtain an inhibition curve.
Series [7] can be described thus: Metabolic stability test in human liver. Type of series: in vitro ADME. The conditions noted are these: liver microsomes, pH 7.4; human liver microsome 1 mg protein/mL, test compound 1 μM, 37° C. The procedure: Using human liver microsome (Xenotech, H0630), the in vitro metabolic half-life was calculated. A reaction solution (300 μL) was prepared to contain a test compound at 1 μM in 250 mM Na—K-phosphate buffer (pH 7.4) containing, at final concentrations, 2.4 mM MgCl2, 1.5 mM glucose-6-phosphate (G-6-P), 0.18 U/mL glucose-6-phosphate dehydrogenase (G-6-P DH), 69 mM KCl, 0.16 mM (3-nicotinamide-adenine dinucleotide phosphate, oxidized form (NADP) and 1 mg microsomal protein/mL. After pre-incubation at 37° C. for 5 minutes, the NADP solution was added to initiate the reaction. The incubation time was set to 0, 10, 20, 30, 45 or 60 minutes. The reaction was stopped by addition of a CH3CN:CH3OH (1:1) solution in the same volume as that of the reaction solution. The sample after the reaction was centrifuged at 3639×g at 4° C. for 10 minutes, and the resulting supernatant was analyzed by LC/MS. Using the time period during which linearity was observed, the metabolic half-life was calculated from the slope.

Structures are written as SMILES.

T1 sequence (Q9Y5N1 whole entry): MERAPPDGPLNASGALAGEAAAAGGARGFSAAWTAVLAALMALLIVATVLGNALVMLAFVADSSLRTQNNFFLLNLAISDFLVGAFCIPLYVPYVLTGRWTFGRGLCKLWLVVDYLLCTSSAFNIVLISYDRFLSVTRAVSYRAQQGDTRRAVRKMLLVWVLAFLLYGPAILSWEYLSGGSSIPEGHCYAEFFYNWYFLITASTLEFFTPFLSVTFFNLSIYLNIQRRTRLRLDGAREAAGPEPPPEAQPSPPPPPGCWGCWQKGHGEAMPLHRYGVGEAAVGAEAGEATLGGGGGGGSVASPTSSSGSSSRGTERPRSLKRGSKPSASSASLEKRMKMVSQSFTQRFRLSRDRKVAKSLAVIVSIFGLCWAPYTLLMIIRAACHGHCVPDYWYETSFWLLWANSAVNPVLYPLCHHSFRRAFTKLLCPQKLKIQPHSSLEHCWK
T3 sequence (Q99720 whole entry): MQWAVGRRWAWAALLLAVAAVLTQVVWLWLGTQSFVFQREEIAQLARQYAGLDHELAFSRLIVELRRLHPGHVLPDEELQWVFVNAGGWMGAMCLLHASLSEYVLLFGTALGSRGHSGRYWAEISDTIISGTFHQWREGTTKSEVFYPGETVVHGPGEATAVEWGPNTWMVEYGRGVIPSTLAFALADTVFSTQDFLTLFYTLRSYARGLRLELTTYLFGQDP
T2 sequence (P34975 whole entry): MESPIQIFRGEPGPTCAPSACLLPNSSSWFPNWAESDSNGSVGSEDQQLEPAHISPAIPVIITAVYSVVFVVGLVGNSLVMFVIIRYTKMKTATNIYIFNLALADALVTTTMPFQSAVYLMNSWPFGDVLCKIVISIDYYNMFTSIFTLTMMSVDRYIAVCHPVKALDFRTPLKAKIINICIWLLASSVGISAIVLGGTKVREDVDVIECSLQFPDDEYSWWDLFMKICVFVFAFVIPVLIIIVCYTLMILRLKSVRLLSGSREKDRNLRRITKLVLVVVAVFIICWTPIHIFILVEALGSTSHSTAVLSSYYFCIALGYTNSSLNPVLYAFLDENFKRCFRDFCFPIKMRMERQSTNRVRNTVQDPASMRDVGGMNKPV
Sequence of human recombinant μ receptor (P35372 whole entry): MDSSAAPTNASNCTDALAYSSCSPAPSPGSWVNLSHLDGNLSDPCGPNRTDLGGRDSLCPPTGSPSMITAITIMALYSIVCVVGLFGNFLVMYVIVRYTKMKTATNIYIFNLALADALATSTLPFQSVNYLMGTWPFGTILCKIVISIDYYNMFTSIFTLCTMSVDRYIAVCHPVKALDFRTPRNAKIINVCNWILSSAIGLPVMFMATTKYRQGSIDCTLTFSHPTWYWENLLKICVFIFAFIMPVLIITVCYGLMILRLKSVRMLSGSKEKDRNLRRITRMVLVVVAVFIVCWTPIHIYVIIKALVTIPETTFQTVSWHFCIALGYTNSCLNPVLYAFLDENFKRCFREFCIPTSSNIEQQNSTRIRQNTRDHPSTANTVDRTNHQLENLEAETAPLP
T4 sequence (P41143 whole entry): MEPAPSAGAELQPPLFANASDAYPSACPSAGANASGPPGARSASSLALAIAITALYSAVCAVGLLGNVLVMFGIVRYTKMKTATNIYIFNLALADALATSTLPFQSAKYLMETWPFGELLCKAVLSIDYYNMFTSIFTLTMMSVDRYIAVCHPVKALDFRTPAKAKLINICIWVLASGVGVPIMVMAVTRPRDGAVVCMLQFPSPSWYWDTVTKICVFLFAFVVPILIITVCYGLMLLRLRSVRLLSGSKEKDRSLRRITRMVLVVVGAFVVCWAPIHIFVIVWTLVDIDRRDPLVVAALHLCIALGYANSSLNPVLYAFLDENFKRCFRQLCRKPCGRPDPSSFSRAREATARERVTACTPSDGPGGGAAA

With `C[C@@H]1CCCN1CCCOc1ccc(-n2cc(C(=O)N3CCOCC3)cn2)cc1F` [Example 62, [1-(3-fluoro-4-{3-[(2R)-2-methylpyrrolidin-1-yl]propoxy}phenyl)-1H-pyrazol-4-yl](morpholin-4-yl)methanone], in the series with CHL/IU cells, the “concentration of the test compound at which the survival rate was 50%” value worked out at 441000 µM. Further, the IC50 at human H3 receptor [1] was found to be 8.7 nM.
Turning to `C[C@@H]1CCCN1CCCOc1ccc(-n2cc(C(=O)N3CCOCC3)cn2)cc1.Cl` [Example 70, 4-{[1-(4-{3-[(2R)-2-methylpyrrolidin-1-yl]propoxy}phenyl)-1H-pyrazol-4-yl]carbonyl}morpholine monohydrochloride], the “concentration of the test compound at which the survival rate was 50%” value with CHL/IU cells is more than 640000 µM. Besides, the “tissue distribution of unchanged form and major metabolites” value in [2] was “rapidly disappear from each organ”. Further, the inhibition at 10 µM in series [3] is 17%; in series [4], 3%; on σ1 receptor, 28%; in series [5], -1%. Also, the “effect on cognitive functions” value in the series on Sprague-Dawley rats (10 mg/kg oral, rats, compared to vehicle group) is “had an enhancing effect on cognitive functions”. Also, the “Ratio (second exploratory time/first exploratory time)” value in the series on Sprague-Dawley rats (10 mg/kg orally to adult rats immediately after first social behavior, n = 18, p<0.01 vs vehicle) is recorded as 0.66 ± 0.06^p<0.01.
For the compound `C[C@@H]1CCCN1CCCOc1ccc(-n2cc(C(=O)N3CCCOCC3)cn2)cc1` [Example 54, [1-(4-{3-[(2R)-2-methylpyrrolidin-1-yl]propoxy}phenyl)-1H-pyrazol-4-yl](1,4-oxazepan-4-yl)methanone], on human H3 receptor [1], the IC50 was determined as 4.1 nM. The inhibition at 10 µM on σ1 receptor amounted to 39%.
Regarding `C[C@@H]1CCCN1CCCOc1ccc(-n2cc(N3CCCC3=O)cn2)cc1` [Example 30, 1-[1-(4-{3-[(2R)-2-methylpyrrolidin-1-yl]propoxy}phenyl)-1H-pyrazol-4-yl]pyrrolidine-2-one], the half-inhibitory concentration (IC50) on human H3 receptor [1] is 3.3 nM; on human H3 receptor [6], 1.7 nM.
As for `Cc1cc(OCCCN2CCC[C@H]2C)ccc1-n1cc(C(=O)N2CCOCC2)cn1` [Example 63, [1-(2-methyl-4-{3-[(2R)-2-methylpyrrolidin-1-yl]propoxy}phenyl)-1H-pyrazol-4-yl](morpholin-4-yl)methanone], the IC50 on human H3 receptor [1] was determined as 20.7 nM.
Consider `C[C@@H]1CCCN1CCCOc1ccc(-n2cc(C(=O)N3CCCC3)cn2)cc1` [Example 56, [1-(4-{3-[(2R)-2-methylpyrrolidin-1-yl]propoxy}phenyl)-1H-pyrazol-4-yl](pyrrolidin-1-yl)methanone], for which the “concentration of the test compound at which the survival rate was 50%” value with CHL/IU cells amounted to 275000 µM. In addition, on human H3 receptor [1], the IC50 came to 2.8 nM.
On to `CCOC(=O)c1cnn(-c2ccc(OCCCN3CCC[C@H]3C)cc2)c1` [Example 1, 1-(4-{3-[(2R)-2-methylpyrrolidin-1-yl]propoxy}phenyl)-1H-pyrazole-4-carboxylic acid ethyl ester], for which the concentration for half-maximal inhibition (IC50) on human H3 receptor [1] was 24 nM.
Take `C[C@@H]1CCCN1CCCOc1ccc(-n2cc(C(=O)N3CCOC(O)C3)cn2)cc1` (stereo partly drawn) [Example 65, (2-hydroxymorpholin-4-yl)[1-(4-{3-[(2R)-2-methylpyrrolidin-1-yl]propoxy}phenyl)-1H-pyrazol-4-yl]methanone]: the IC50 at human H3 receptor [1] turned out to be 5.9 nM.
Consider `CCC1CCCN1CCCOc1ccc(-n2cc(C(=O)N3CCOCC3)cn2)cc1` (centres unmarked) [Example 58, (1-{4-[3-(2-ethylpyrrolidin-1-yl)propoxy]phenyl}-1H-pyrazol-4-yl)(morpholin-4-yl)methanone], for which the IC50 at human H3 receptor [1] was determined as 8.7 nM.
In series [7], `C[C@@H]1CCCN1CCCOc1ccc(-n2cc(C(=O)N3CCOCC3)cn2)cc1` [Example 6, 4-{[1-(4-{3-[(2R)-2-methylpyrrolidin-1-yl]propoxy}phenyl)-1H-pyrazol-4-yl]carbonyl}morpholine] had a half-life at 1 μM not below 3 h.
Regarding `O=C(c1cnn(-c2ccc(OCCCN3CCCCC3)cc2)c1)N1CCOCC1` [Example 9, 4-({1-[4-(3-piperidin-1-ylpropoxy)phenyl]-1H-pyrazol-4-yl}carbonyl)morpholine], the IC50 on human H3 receptor [1] turned out to be 8.5 nM.
With `C[C@@H]1CCCN1CCCOc1ccc(-n2cc(C(=O)N3CCC(F)(F)C3)cn2)cc1` [Example 22, 4-[(3,3-difluoropyrrolidin-1-yl)carbonyl]-1-(4-{3-[(2R)-2-methylpyrrolidin-1-yl]propoxy}phenyl)-1H-pyrazole], on human H3 receptor [1], the IC50 turned out to be 2.7 nM.
Turning to `C[C@@H]1CCCN1CCCOc1ccc(-n2cc(NC(=O)Cc3ccc(O)cc3)cn2)cc1` [Example 45, 2-(4-hydroxyphenyl)-N-[1-(4-{3-[(2R)-2-methylpyrrolidin-1-yl]propoxy}phenyl)-1H-pyrazol-4-yl]acetamide], the IC50 on human H3 receptor [1] came out at 1.1 nM.
As to `C[C@@H]1CCCN1CCCOc1ccc(-n2cc(C(=O)N3CCN(C)CC3)cn2)cc1` [Example 55, (4-methylpiperazin-1-yl)[1-(4-{3-[(2R)-2-methylpyrrolidin-1-yl]propoxy}phenyl)-1H-pyrazol-4-yl]methanone], the IC50 on human H3 receptor [1] is 5.2 nM. Further, at σ1 receptor, the inhibition at 10 µM turned out to be 3%.

In general, IC50 refers to the concentration that inhibits the measured activity by half. What is called inhibition is the change of the read-out against control, counted positive when it falls. For orientation: half-life means the time in which the quantity being followed falls by half. High values mean slow loss, low ones fast loss.

The values above are taken from patent US8183387B2, “Phenylpyrazole derivatives” (Taisho Pharmaceutical Co., Ltd, priority 2007, dated 2012).
